From patent publication US6303596A, “Use of taurolidine for treatment of leukemias” (priority 2000, dated 2001)

What was measured:
[1] = tested on: REH; assay: growth rate after taurolidine treatment, REH; type: cell-based; details: Homo sapiens, 72 h, growth over three days, read-out: growth rate (% of control)
Protocol: FIGS. 8A and 8B depict cell viability and growth rates for REH cell line following taurolidine treatment, in terms of % trypan blue negative cells and % cell number, respectively. Cells were treated with various concentrations of taurolidine for 4 hours in AIM-V+0.01% BCS. After aliquots were collected for LDH assay, the remainder of the culture was rinsed in HBSS and resuspended in RPMI+10% BCS without taurolidine. Counts of trypan blue-negative cells (FIG. 8A), and total cell number (FIG. 8B), were recorded daily thereafter (with the measurement at Day 1 being made immediately after the 4 hour taurolidine treatment). […] Doubling times were determined under each condition, and expressed as a percentage of the rate of doubling of untreated cells. […]
In these experiments, integrity of cell membranes following taurolidine treatment was assessed by exclusion of trypan blue and by measuring the release of LDH in MM6, K-562, HL-60, and REH cells. […] A parallel aliquot of cells was lysed by three cycles of freeze/thaw and the quantity of LDH released was taken to be 100%. […]
HL-60 cells treated with 50 μl taurolidine. In these samples, LDH present in the culture medium was 8.3±2.3% of that released by completely lysed cells, compared with 2.3±0.8% measured in control cultures. […]
^b Growth rate was measured over three days following treatment.

[2] = tested on: tissue factor (TF); assay: LPS-induced tissue factor (TF) expression in MM6 cells, ELISA; type: cell-based, human; details: for inhibition of LPS-induced TF expression: 4 h
Protocol: FIG. 2A represents MM6 cells; FIG. 2B represents PBMC. The cells were induced with LPS (hatched bars: 100 ng/ml LPS in RPMI supplemented with 10% BCS (RPMI+10% BCS); solid bars: 10 ng/ml in AIM-V+0.01% BCS) in the presence of varying concentrations of taurolidine,or with a dilution of the vehicle equivalent to that given to cells receiving 100 μg/ml taurolidine. After four hours, cells were collected and lysates were prepared for TF ELISA. Data are expressed as percent of TF antigen measured in cells treated with LPS alone (no taurolidine or vehicle). Experiments were performed with duplicate samples and were repeated at least three times. Values shown are mean±SEM of all experiments.
All cells were cultured in a 5% CO2 atmosphere at 37° C. MM6 cells were grown in RPMI supplemented with 10% BCS, 2 mM L-glutamine, and 50 μg/ml gentamicin (RPMI+10% BCS). In some experiments, MM6 cells were rinsed once with HBSS without Ca^++ or Mg^++ and once with AIM-V before finally being resuspended in AIM-V supplemented with 0.01% BCS (AIM-V+0.01% BCS). […] AIM-V was supplemented with a low amount of BCS (0.01%) in order to provide a source of LPS-binding protein, which enhances the response of monocytic cells to LPS. […] HL-60, REH, and Jurkat were cultured in RPMI supplemented with 10% heat inactivated fetal bovine serum (FBS), 2 mM L-glutamine, and 50 μg/ml gentamicin. ECV304 were cultured in M199 supplemented with 10% FBS, mM L-glutamine, and 50 μg/ml gentamicin. GM5387 was cultured in MEM supplemented with 20% FBS, 2 mM L-glutamine, and 50 μg/ml gentamicin.
For induction of TF or TNFα expression, MM6 cells or PBMC were cultured either in RPMI supplemented with 10% BCS or in AIM-V+0.01% BCS, and stimulated by adding LPS to final concentrations of 10 to 100 ng/ml. […] Except as noted, taurolidine and LPS were added to the cell cultures simultaneously. For TF determination, cells and culture media together were treated by adding Triton X-100 (1% final) and EDTA (7 mmol/L final), and the resulting lysates assayed by ELISA. […] For TNFα determination, cells were removed by centrifugation for 5 min at 250×g, and the supernatants were assayed by ELISA.

[3] = tested on: all cells tested; assay: apoptogenic efficiency in all cells tested; type: cell-based, human
Protocol: In another study, TUNEL assays were performed on all cell lines 6 hours after cells were initially exposed to taurolidine (cells were treated for 4 hours, rinsed, and then incubated for 2 more hours before TUNEL assay was performed).
. Taurolidine and anisomycin induced apoptosis in MM6, HL-60, and Jurkat cells (Table VIII). MM6 and HL-60 cells were similarly effected, with >80% TUNEL-positive cells after 6 hours. Jurkat cells were less sensitive, with approximately 50% of cells induced to undergo apoptosis after taurolidine treatment. After 6 hours, 73% of anisomycin-treated REH cells were apoptotic, with less than 20% of taurolidine-treated REH cells being TUNEL-positive. However, assay of cells 24 hours after […]

[4] = tested on: Jurkat cells; assay: growth rate after taurolidine treatment, Jurkat; type: cell-based, human
Protocol: FIGS. 9A and 9B depict cell viability and growth rates for Jurkat cell line following taurolidine treatment, in terms of % trypan blue negative cells and % cell number, respectively. Cells were treated with various concentrations of taurolidine for 4 hours in AIM-V+0.01% BCS. After aliquots were collected for LDH assay, the remainder of the culture was rinsed in HBSS and resuspended in RPMI+10% BCS without taurolidine. Counts of trypan blue-negative cells (FIG. 9A), and total cell number (FIG. 9B), were recorded daily thereafter (with the measurement at Day 1 being made immediately after the 4 hour taurolidine treatment). Conditions were: no treatment (open circles); 25 μg/ml taurolidine (closed circles); 50 μg/ml taurolidine (open squares); 100 μg/ml taurolidine (closed squares); and vehicle alone (closed triangles). Doubling times were determined under each condition, and expressed as a percentage of the rate of doubling of untreated cells. These values are located to the right of the growth curves in (FIG. 9B). […]
HL-60 cells treated with 50 μl taurolidine. In these samples, LDH present in the culture medium was 8.3±2.3% of that released by completely lysed cells, compared with 2.3±0.8% measured in control cultures. […] After 4 hour treatment, cells were rinsed and returned to growth medium and monitored for viability and growth over the following 3 days. […]

O=S1(=O)CCN(CN2CCS(=O)(=O)NC2)CN1 [taurolidine, 4,4'-methylenebis(perhydro-1,2,4-thiadiazin 1,1-dioxide)]
activity at 50 µg/mL ([1]; 50 μg/ml for 4 h): 1% | activity at 100 µg/mL ([1]; 100 μg/ml for 4 h): 18% | inhibition of LPS-induced TF expression ([2]; MM6, taurolidine 50 μg/ml or higher): completely blocked | inhibition of LPS-induced TF expression ([2]; MM6, taurolidine 10 or 25 μg/ml): little or no effect | induction of TF expression (summary) ([2]; PBMC, MM6 and granulocytes, LPS-induced): blocked | apoptogenic efficiency versus anisomycin [3]: as efficient an apoptogenic agent as the protein synthesis inhibitor anisomycin | sensitivity of cell growth among cell lines [4]: least affected
